# Results reported in patent US8524755B2 (priority 2009, dated 2013).
# Columns and labels:
# [1] = tested on: Muscarinic M (ns); test: Binding M (ns) (aa); parameters: species or system rat
# Procedure: (§1) Radioligand binding assay methods utilized to measure the activity of compounds of the invention will be familiar to those skilled in the art. In each assay case, the assay components such as, for example, the cell-type, ligand, reference compound and the like, will be familiar to practitioners of such an assay.
# (§2) Analysis and Expression of Results: Compounds of the invention were tested in the biochemical assays and percent inhibition of specific binding was determined. The specific ligand binding to the receptors is defined as the difference between the total binding and the nonspecific binding determined in the presence of an excess of unlabelled ligand. The results are expressed as a percent inhibition of control specific binding (100−((measured specific binding/control specific binding)×100)) obtained in the presence of test compounds.
# [2] = tested on: PDE5 (h) (ns); test: Enzyme assay PDE5 (h) (ns); assay type: biochemical, human
# From the text: (§3) The enzyme assays provided below will be familiar to those skilled in the art.
# (§4) Analysis and Expression of Results: The results are expressed as a percent of control specific activity ((measured specific activity/control specific activity)×100) obtained in the presence of the test compounds.
# [3] = target: T1, PDE1B (h) (Homo sapiens, UniProt Q01064); test: Enzyme assay PDE1B (h); assay type: biochemical; details: read-out: % Inhibition of Control Values @ 10 μM
# T1 construct: host or cells: Sf9 cells
# From the text: as §3, §4
# [4] = target: T2, Cholecystokinin CCK2 (CCKB) (h) (Homo sapiens, UniProt P32239); test: Binding CCK2 (CCKB) (h) (ag); details: read-out: % Inhibition of Control Specific Binding @ 10 μM
# T2 construct: expressed in transfected cells; host or cells: CHO cells
# T2 sequence (P32239 1-447): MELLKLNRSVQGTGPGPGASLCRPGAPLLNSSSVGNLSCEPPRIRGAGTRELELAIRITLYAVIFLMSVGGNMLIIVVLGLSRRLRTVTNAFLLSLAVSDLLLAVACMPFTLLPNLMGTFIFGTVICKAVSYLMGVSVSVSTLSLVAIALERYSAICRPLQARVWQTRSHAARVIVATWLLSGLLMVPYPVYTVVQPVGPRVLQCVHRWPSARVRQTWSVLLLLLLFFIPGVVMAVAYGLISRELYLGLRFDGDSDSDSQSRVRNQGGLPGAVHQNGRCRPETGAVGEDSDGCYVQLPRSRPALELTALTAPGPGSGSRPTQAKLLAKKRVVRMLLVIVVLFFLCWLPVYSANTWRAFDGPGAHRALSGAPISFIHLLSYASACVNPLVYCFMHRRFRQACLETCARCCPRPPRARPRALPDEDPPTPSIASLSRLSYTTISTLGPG
# Procedure: as §1, §2
# [5] = tested on: PCP; test: Binding PCP (aa); parameters: species or system rat
# Procedure: as §1, §2
# [6] = target: T3, GnRH (LH-RH) (Rattus norvegicus, UniProt P30969); test: Binding GnRH (LH-RH) (ag); details: read-out: % Inhibition of Control Specific Binding @ 10 μM
# T3 construct: rat pituitary gland; from tissue; host or cells: rat pituitary gland
# T3 sequence (P30969 1-327): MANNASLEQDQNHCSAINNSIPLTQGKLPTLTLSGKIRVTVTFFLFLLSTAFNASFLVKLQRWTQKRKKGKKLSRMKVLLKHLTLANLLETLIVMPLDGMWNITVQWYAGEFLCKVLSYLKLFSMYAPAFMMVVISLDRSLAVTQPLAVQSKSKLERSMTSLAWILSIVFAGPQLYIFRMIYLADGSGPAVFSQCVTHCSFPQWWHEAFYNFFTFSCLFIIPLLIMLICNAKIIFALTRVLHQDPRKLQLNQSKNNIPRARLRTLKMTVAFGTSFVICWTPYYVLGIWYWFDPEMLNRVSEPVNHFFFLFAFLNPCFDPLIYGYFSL
# Procedure: as §1, §2
# [7] = target: T4, CysLT1 (LTD4) (h) (Homo sapiens, UniProt Q9Y271); test: Binding CysLT1 (LTD4) (ag); details: read-out: % Inhibition of Control Specific Binding @ 10 μM
# T4 construct: expressed in transfected cells; host or cells: CHO cells
# T4 sequence (Q9Y271 1-337): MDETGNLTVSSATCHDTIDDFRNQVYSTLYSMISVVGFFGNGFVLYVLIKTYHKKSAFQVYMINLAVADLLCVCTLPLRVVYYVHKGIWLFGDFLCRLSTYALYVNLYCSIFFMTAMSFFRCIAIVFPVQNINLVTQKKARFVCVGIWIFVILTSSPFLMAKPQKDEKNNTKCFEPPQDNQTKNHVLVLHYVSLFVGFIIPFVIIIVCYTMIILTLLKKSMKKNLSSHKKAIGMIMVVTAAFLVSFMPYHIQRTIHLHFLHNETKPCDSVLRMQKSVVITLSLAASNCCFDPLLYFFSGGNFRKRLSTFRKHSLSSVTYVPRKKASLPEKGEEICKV
# Procedure: as §1, §2
# [8] = target: T5, Endothelin ETB (h) (Homo sapiens, UniProt P24530); test: Binding ETB (h) (ag); details: read-out: % Inhibition of Control Specific Binding @ 10 μM
# T5 construct: expressed in transfected cells; host or cells: CHO cells
# T5 sequence (P24530 27-442): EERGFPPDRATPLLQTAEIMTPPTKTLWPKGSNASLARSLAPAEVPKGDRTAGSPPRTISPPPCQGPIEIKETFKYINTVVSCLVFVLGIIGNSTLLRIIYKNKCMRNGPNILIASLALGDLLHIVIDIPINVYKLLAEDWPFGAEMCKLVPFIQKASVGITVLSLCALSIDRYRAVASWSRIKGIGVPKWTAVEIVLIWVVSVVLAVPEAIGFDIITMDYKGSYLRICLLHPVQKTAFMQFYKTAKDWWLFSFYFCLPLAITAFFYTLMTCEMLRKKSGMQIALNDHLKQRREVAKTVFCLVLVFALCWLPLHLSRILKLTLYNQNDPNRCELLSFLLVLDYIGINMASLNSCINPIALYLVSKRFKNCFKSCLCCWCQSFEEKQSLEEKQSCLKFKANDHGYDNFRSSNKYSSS
# Procedure: as §1, §2
# T1 sequence (Q01064 whole entry): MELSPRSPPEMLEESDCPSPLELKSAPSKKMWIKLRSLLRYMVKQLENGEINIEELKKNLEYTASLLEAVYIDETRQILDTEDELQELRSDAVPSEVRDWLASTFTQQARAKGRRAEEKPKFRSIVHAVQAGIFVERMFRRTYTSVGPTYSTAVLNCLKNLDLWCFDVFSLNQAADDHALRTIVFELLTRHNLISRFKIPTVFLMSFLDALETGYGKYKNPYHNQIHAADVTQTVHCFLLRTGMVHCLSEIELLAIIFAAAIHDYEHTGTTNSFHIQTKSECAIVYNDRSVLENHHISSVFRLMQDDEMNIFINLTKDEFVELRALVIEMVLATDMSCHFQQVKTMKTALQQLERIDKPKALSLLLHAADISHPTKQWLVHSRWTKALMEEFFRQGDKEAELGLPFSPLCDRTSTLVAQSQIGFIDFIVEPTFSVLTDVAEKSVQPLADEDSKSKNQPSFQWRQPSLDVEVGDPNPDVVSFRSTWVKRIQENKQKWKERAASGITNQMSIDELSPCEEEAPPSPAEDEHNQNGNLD
SMILES,% Inhibition of Control Specific Binding @ 10 μM [1] [%],% Inhibition of Control Values @ 10 μM [2] [%],inhibition at 10 µM [3] [%],inhibition at 10 µM [4] [%],% Inhibition of Control Specific Binding @ 10 μM [5] [%],inhibition at 10 µM [6] [%],inhibition at 10 µM [7] [%],inhibition at 10 µM [8] [%]
"CC1(C)C(=O)N(c2ccc(C#N)c(C(F)(F)F)c2)C(=S)N1c1ccc(C(=O)O)c(F)c1 [(MI), 4-(3-(4-cyano-3-(trifluoromethyl)phenyl)-5,5-dimethyl-4-oxo-2-thioxoimidazolidin-1-yl)-2-fluorobenzoic acid]",18,4,0,-10,0,-21,3,-7
"CC1(C)C(=O)N(c2ccc(C#N)c(C(F)(F)F)c2)C(=S)N1c1ccc(C(N)=O)c(F)c1 [(MII), 4-(3-(4-Cyano-3-(trifluoromethyl)phenyl)-5,5-dimethyl-4-oxo-2-thioxoimidazolidin-1-yl)-2-fluorobenzamide]",1,−1,-11,-18,5,-51,18,-4
"CC1(C)C(=O)N(c2ccc(C#N)c(C(F)(F)F)c2)C(=O)N1c1ccc(C(N)=O)c(F)c1 [(MIII), 4-(3-(4-cyano-3-(trifluoromethyl)phenyl)-5,5-dimethyl-2,4-dioxoimidazolidin-1-yl)-2-fluorobenzamide]",20,8,-8,-18,2,5,11,0
"CNC(=O)c1ccc(N2C(=O)N(c3ccc(C#N)c(C(F)(F)F)c3)C(=O)C2(C)C)cc1F [(MIV), 4-(3-(4-cyano-3-(trifluoromethyl)phenyl)-5,5-dimethyl-2,4-dioxoimidazolidin-1-yl)-2-fluoro-N-methylbenzamide]",25,2,-2,-12,4,0,11,-3
